Results published in ChEMBL document CHEMBL5727862, “Inhibitors of plasma kallikrein and uses thereof” (2020).

Assay: Inhibitory Activity of Exemplary Compounds against Plasma Kallikrein: Example compounds were evaluated for inhibition of the human activated kallikrein enzyme in two formats of an assay employing a fluorogenic peptide substrate. In one assay format, the concentrations of reagents were as follows: 20 mM Tris pH 7.5, 1 mM EDTA, 150 mM sodium chloride, 0.1% PEG-400, 0.1% Triton X-100, 500 pM activated kallikrein enzyme, 300 uM Pro-Phe-Arg-7-amido-4-methylcoumarin substrate. Prior to reaction initiation with substrate, enzyme and inhibitors were preincubated for 30 min at RT. After initiation with substrate, reactions were incubated for 10 min at RT and fluorescence emission at 460 nm from 380 nm excitation measured with a microplate reader. In another assay format, the concentrations of reagents were as follows: 20 mM Tris pH 7.5, 1 mM EDTA, 150 mM sodium chloride, 0.1% PEG-400, 0.1% Triton X-100, 5 pM activated kallikrein enzyme, 300 uM Pro-Phe-Arg-7-amido-4-methylcoumarin substrate. Prior to reaction initiation with substrate, enzyme and inhibitors were preincubated for 30 min at RT. After initiation with substrate, reactions were incubated for 18 h at RT and fluorescence emission at 460 nm from 380 nm excitation measured with a microplate reader.

| EC50 [nM] | SMILES |
| --- | --- |
| < 1 | CCOC(=O)C1CN(c2cc(C3CC3)cn3cc(Cn4cc(C(=O)NCc5ncn6ccc(Cl)c(F)c56)nn4)nc23)CCO1 (configuration not stated) |
| < 1 | O=C(NCc1ncn2ccc(Cl)c(F)c12)c1cn(Cc2cn3cc(C4CC4)cc(CCl)c3n2)nn1 |
| < 1 | CCOC(=O)c1cc(C2CC2)cn2cc(Cn3cc(C(=O)NCc4ncn5ccc(Cl)c(F)c45)nn3)nc12 |
| < 1 | CCOC(=O)c1ccn(Cc2cc(C3CC3)cn3cc(Cn4cc(C(=O)NCc5ncn6ccc(Cl)c(F)c56)nn4)nc23)n1 |

The remaining lines, values behind:

| SMILES | EC50 [nM] |
| --- | --- |
| CC(C)(C)OC(=O)c1ncc(-c2cc(C3CC3)cn3cc(Cn4cc(C(=O)NCc5ncn6ccc(Cl)c(F)c56)nn4)nc23)s1 | < 1 |
| O=C(NCc1ncn2ccc(Cl)c(F)c12)c1cn(Cc2cn3cc(C4CC4)ccc3n2)c(C(=O)O)n1 | < 1 |
| CCOC(=O)c1cc(C2CC2)cn2cc(Cn3cc(C(=O)NCc4ncn5ccc(Cl)cc45)cn3)nc12 | < 1 |
| O=C(NCc1cn2c(F)c(Cl)ccc2n1)c1cn(Cc2cn3cc(C4CC4)cc(Cc4nnc(C(=O)O)o4)c3n2)nn1 | < 1 |
| O=C(NCc1cn2c(F)c(Cl)ccc2n1)c1cn(Cc2cn3cc(C4CC4)cc(Cc4nnco4)c3n2)nn1 | < 1 |
| CC(c1cn2cc(C3CC3)cc(C3CCC(=O)O3)c2n1)n1cc(C(=O)NCc2ncn3ccc(Cl)c(F)c23)nn1 (configuration not stated) | < 1 |
| O=C(OCc1ccccc1)c1cnn(Cc2cn3cc(C4CC4)cc(CO)c3n2)c1 | < 1 |
| O=C(NCc1ncn2ccc(Cl)c(F)c12)c1cn(Cc2cn3nc(C4CC4)cc(CN4CCCC4)c3n2)nn1 | < 1 |
